Experimental data: ChEMBL document CHEMBL1201862, “PubChem BioAssay data set” (2004)
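In this assay, cells in 96-well plates receive the compound at five concentrations for 48 hours. Endpoints are linearly interpolated between the surrounding concentrations. Here, GI50 denotes the concentration required for 50% inhibition of growth.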 The source made the active and inactive calls. Rule as the data show it: active = GI50 up to about 1.1 µM and inactive = higher.

Experiments:
Assay in all cases: inhibition of tumour cell growth, NCI panel, 48 h
DMS-273 = tested on: DMS-273
NCI-H522 = tested on: NCI-H522
OVCAR-4 = tested on: OVCAR-4
SW-620 = tested on: SW-620
MOLT-4 = tested on: MOLT-4
EKVX = tested on: EKVX
HCC 2998 = tested on: HCC 2998
SN12C = tested on: SN12C
HOP-92 = tested on: HOP-92
SK-MEL-2 = tested on: SK-MEL-2
HL-60 = tested on: HL-60
NCI-H23 = tested on: NCI-H23
786-0 = tested on: 786-0
HCT-116 = tested on: HCT-116
UACC-62 = tested on: UACC-62
SK-MEL-5 = tested on: SK-MEL-5
CAKI-1 = tested on: CAKI-1

Measured: GI50

N#CC(C(=N/NC(N)=S)/C(=N\NC(N)=S)C(C#N)c1ccccc1)c1ccccc1 (stereo not given)
inactive: DMS-273 > 10 µM | NCI-H522 > 10 µM | OVCAR-4 > 10 µM | SW-620 > 10 µM | MOLT-4 > 10 µM | EKVX > 10 µM | HCC 2998 > 10 µM | SN12C > 10 µM | HOP-92 > 10 µM | SK-MEL-2 > 10 µM | HL-60 > 10 µM | NCI-H23 > 10 µM | 786-0 > 10 µM | HCT-116 > 10 µM | UACC-62 > 10 µM

COc1ccc(NC(=O)c2oc3cc(O)ccc3c(=O)c2C)c([N+](=O)[O-])c1
inactive: DMS-273 > 100 µM | NCI-H522 > 100 µM | SK-MEL-5 > 100 µM | OVCAR-4 > 100 µM | CAKI-1 > 100 µM | SW-620 > 100 µM | MOLT-4 > 100 µM | EKVX > 100 µM | HCC 2998 > 100 µM | SN12C > 100 µM | HOP-92 > 100 µM | SK-MEL-2 > 100 µM | HL-60 > 100 µM | NCI-H23 > 100 µM | 786-0 > 100 µM | HCT-116 > 100 µM | UACC-62 > 100 µM

COc1cc2noc(-c3ccccc3)c2cc1OC
inactive: DMS-273 39.6 µM | NCI-H522 36.4 µM | SK-MEL-5 46.7 µM | OVCAR-4 > 100 µM | CAKI-1 27.4 µM | SW-620 57.3 µM | MOLT-4 26.4 µM | HCC 2998 58.1 µM | SN12C 34.8 µM | HOP-92 44.1 µM | SK-MEL-2 75.9 µM | HL-60 40.1 µM | 786-0 29.2 µM | HCT-116 60.1 µM | UACC-62 74.3 µM

O=C(CCc1nnc2s/c(=C\c3ccc(Cl)cc3Cl)c(=O)n12)Nc1cc(Cl)c(Cl)cc1Cl
inactive: DMS-273 > 10 µM | NCI-H522 2.31 µM | SK-MEL-5 > 10 µM | OVCAR-4 > 10 µM | CAKI-1 > 10 µM | SW-620 > 10 µM | MOLT-4 > 10 µM | EKVX > 10 µM | HCC 2998 > 100 µM | SN12C > 10 µM | HOP-92 24 µM | SK-MEL-2 > 10 µM | HL-60 > 100 µM | NCI-H23 > 10 µM | 786-0 > 10 µM | HCT-116 > 10 µM | UACC-62 > 10 µM

CCOC(=O)C(CCCNC(=O)OC(C)(C)C)N(Cc1ccc(OC)cc1OC)C(=O)CC(=O)CP(=O)(OCC)OCC (stereo not given)
inactive: DMS-273 > 100 µM | NCI-H522 29 µM | SK-MEL-5 > 100 µM | OVCAR-4 > 100 µM | CAKI-1 > 100 µM | MOLT-4 56.5 µM | EKVX > 100 µM | HCC 2998 > 100 µM | SN12C > 100 µM | HOP-92 16.2 µM | SK-MEL-2 > 100 µM | HL-60 97.7 µM | NCI-H23 > 100 µM | 786-0 > 100 µM | HCT-116 > 100 µM | UACC-62 > 100 µM

CCn1c2ccccc2c2c(-c3ccccc3)cc3c(c21)C(=O)N(c1ccccc1)C3=O
inactive: DMS-273 46.2 µM | NCI-H522 > 100 µM | SK-MEL-5 > 100 µM | OVCAR-4 > 100 µM | CAKI-1 > 100 µM | SW-620 > 100 µM | MOLT-4 > 100 µM | EKVX > 100 µM | HCC 2998 > 100 µM | SN12C 91 µM | HOP-92 34.4 µM | SK-MEL-2 > 100 µM | HL-60 > 100 µM | NCI-H23 > 100 µM | 786-0 > 100 µM | HCT-116 95.5 µM | UACC-62 > 100 µM

COC(=O)C1=C(c2cc(OC)c(OC)c(OC)c2)O[C@H](c2ccc3c(c2)OCO3)[C@H]1COC(C)=O
inactive: DMS-273 26.6 µM | SK-MEL-5 9.35 µM | OVCAR-4 29 µM | CAKI-1 19.8 µM | SW-620 25.2 µM | MOLT-4 18.7 µM | EKVX 41.6 µM | HCC 2998 18.3 µM | SN12C 24.7 µM | HOP-92 7.24 µM | SK-MEL-2 27.2 µM | HL-60 15.6 µM | NCI-H23 19.1 µM | 786-0 29.4 µM

CCOC(=O)C(C(=O)OCC)=c1sc(=C(C(=O)OCC)C(=O)OCC)s1
inactive: DMS-273 > 100 µM | NCI-H522 > 100 µM | SK-MEL-5 > 100 µM | OVCAR-4 > 100 µM | CAKI-1 > 100 µM | SW-620 > 100 µM | MOLT-4 > 100 µM | EKVX > 100 µM | HCC 2998 > 100 µM | SN12C > 100 µM | HOP-92 > 100 µM | SK-MEL-2 > 100 µM | HL-60 > 100 µM | NCI-H23 > 100 µM | 786-0 > 100 µM | UACC-62 > 100 µM

COC(=O)/C=C1/CCC(C(=O)OC)N1 (stereo not given)
inactive: DMS-273 > 100 µM | SK-MEL-5 > 100 µM | OVCAR-4 > 100 µM | CAKI-1 > 100 µM | SW-620 > 100 µM | MOLT-4 > 100 µM | EKVX > 100 µM | HCC 2998 > 100 µM | SN12C > 100 µM | HOP-92 > 100 µM | SK-MEL-2 > 100 µM | HL-60 > 100 µM | NCI-H23 > 100 µM | 786-0 > 100 µM | HCT-116 > 100 µM | UACC-62 > 100 µM

CCOC(=O)CNC(SC)=C(C#N)C#N
inactive: DMS-273 > 100 µM | NCI-H522 > 100 µM | SK-MEL-5 > 100 µM | OVCAR-4 > 100 µM | CAKI-1 > 100 µM | SW-620 > 100 µM | MOLT-4 > 100 µM | EKVX > 100 µM | HCC 2998 > 100 µM | SN12C > 100 µM | HOP-92 > 100 µM | HL-60 > 100 µM | NCI-H23 > 100 µM | 786-0 > 100 µM | HCT-116 > 100 µM | UACC-62 > 100 µM

CC(=O)OCc1c(O)nc2c(c1O)-c1ccccc1CC2
inactive: DMS-273 49.2 µM | NCI-H522 35.6 µM | SK-MEL-5 76.6 µM | CAKI-1 59.2 µM | SW-620 56.4 µM | MOLT-4 97.5 µM | EKVX 125 µM | HCC 2998 80.9 µM | SN12C 62.2 µM | HOP-92 78.5 µM | SK-MEL-2 > 35 µM | HL-60 84.7 µM | NCI-H23 76.6 µM | 786-0 56.9 µM | HCT-116 58.2 µM | UACC-62 50.5 µM

CCCCCCCCCCCCCC(=O)NCC(OCC)OCC
inactive: DMS-273 > 100 µM | NCI-H522 > 100 µM | SK-MEL-5 > 100 µM | OVCAR-4 > 100 µM | SW-620 > 100 µM | EKVX > 100 µM | HCC 2998 > 100 µM | SN12C > 100 µM | HOP-92 > 100 µM | SK-MEL-2 > 100 µM | HL-60 > 100 µM | NCI-H23 > 100 µM | 786-0 > 100 µM | HCT-116 > 100 µM | UACC-62 > 100 µM
